Measurements published in patent US20240277732A1, “COMPOSITIONS AND METHODS FOR TREATING BRAIN-GUT DISORDERS” (Enterin, Inc., priority 2018, published 2024).

Tests used:
[1] = Brain distribution of radiolabeled Aminosterol 1436 after IV or ICV administration; format: in vivo; settings: rats
Source text: The purpose of this example was to evaluate the in vivo distribution of Aminosterol 1436 following intracerebroventricular (ICV) and intravenous (IV) administration to rats. ICV injection is an invasive injection technique of substances directly into the cerebrospinal fluid in cerebral ventricles to bypass the blood brain barrier. The results described below detail how aminosterols such as Aminosterol 1436 localize in the brain following in vivo administration, regardless of the route of administration.
Radiolabeled Aminosterol 1436 was injected into rats by two different forms of administration: ICV and IV administration.

[2] = PK profile IN versus IV bolus; format: in vivo; settings: rat, 2 mg/kg IV bolus
Source text: Thus, the amount of aminosterol in the bloodstream is too low to account for the observed pharmacological effect. This means that when administered IN, an aminosterol is having a pharmacological effect via a mechanism other than via plasma concentration of the drug.

[3] = Weight change after IP or IN administration; format: in vivo; settings: mice
Procedure: The purpose of this example was to evaluate and compare the impact on weight following administration of an aminosterol such as Aminosterol 1436 to mice via IP or IN.
Mice were administered: (i) intraperitoneally 1 mg/kg or 10 mg/kg of Aminosterol 1436, (ii) intranasally 0.4 mg/kg of Aminosterol 1436, or (iii) a saline control administered IN. Weight of the mice was then measured for 10 days post-administration.

[4] = Intranasal pharmacokinetics in plasma; format: in vivo, Sprague Dawley rats; settings: Sprague-Dawley, rat, in vivo
Source text: The purpose of this example was to evaluate the in vivo distribution and function of aminosterols, such as Aminosterol 1436 and squalamine, following intranasal administration. This experiment relates to the amount of drug needed to obtain a therapeutic result, based on an IN route of administration. The results described below detail that aminosterols such as Aminosterol 1436 act at the level of the hypothalamus following in vivo administration, regardless of the route of administration.

[5] = Brain distribution, food intake and body weight after IP or ICV administration; format: in vivo; settings: 10 and 40 μg ICV, 5 mg/kg IP
Source text: The purpose of this example was to evaluate the in vivo distribution of the aminosterol Aminosterol 1436 following intraperitoneal administration (IP) and ICV administration, and to determine the impact the drug has on food intake and body weight when administered IP and ICV.
Additional data regarding in vivo distribution and the effect of the route of administration for an aminosterol is shown in FIG. 7.
This experiment is relevant as the areas of the brain where the aminosterol Aminosterol 1436 localized upon administration are known to control feeding behavior and appetite.

Q: Which “site of localization in brain” value ([1]; ICV administration) does the source give for CC(C)[C@@H](CC[C@@H](C)[C@H]1CC[C@H]2[C@@H]3[C@H](O)C[C@H]4C[C@@H](NCCCNCCCCNCCCN)CC[C@]4(C)[C@H]3CC[C@]12C)OS(=O)(=O)O [Aminosterol 1436] here?
A: The value was “localized to the same regions of the brain”.

Q: And the “site of localization in brain” value ([1]; IV administration)?
A: Its value is “localized in the hypothalamus”.

Q: What about the “exposure after IV bolus injection” value [2] of the same compound?
A: The value was 190 µg·h/mL.

Q: What about the “weight change over 10 days” value ([3]; 0.4 mg/kg IN) of the same compound?
A: Its value is “decrease in the weight of the mice in an amount comparable to 10 mg/kg of intraperitoneally administered Aminosterol 1436”.

Q: And the “weight change over 10 days” value ([3]; 1 mg/kg IP)?
A: The value was “compared similarly to the intranasally administered saline control”.

Q: What about the “blood levels after intranasal versus peripherally injected administration” value [4] of the same compound?
A: Its value is 10 times.

Q: What about the “AUC_% Extrap_obs” value ([4]; 0.5 mg/kg) of the same compound?
A: Its value is 47.6%.

Q: And the AUClast/D ([4]; 0.5 mg/kg)?
A: Its AUClast/D is 18700 kg·ng·h/mL/mg.

Q: And the “effect on food intake over 10 days” value [5]?
A: The value was “significant impact on food intake”.

Q: And the “percent change in body weight” value [5]?
A: The value was “decrease in body weight”.
